Laboratory results: US6913760B2, “Drug delivery composition” (New England Medical Hospitals, Inc., priority 2001, dated 2005)
Where “and” joins values, the source holds several entries; their conditions need not be identical. Equal entries are not always repeated. Marks after values point to notes of the source that are not given here.

Assays:
rats [1] = test: Paw withdrawal test after intrathecal implantation of PLGA rods; format: in vivo; conditions: for % MPE, paw withdrawal test, Average: average of 6 rats
rats [2] = test: Anesthesia after intrathecal polymeric implants, all sites tested (Example 2); format: in vivo; conditions: intrathecal rods
rats [3] = test: Tail flick test after intrathecal implantation of PLGA rods; format: in vivo; conditions: for % MPE, tail flick test, Average: average of 6 rats
[4] = Drug release studies of PLGA 85:15 rods (Example 2); format: physicochemical
[5] = trapezoidal method, individual rats
[6] = trapezoidal method, mean of 6 rats

C[C@@H](NC(=O)[C@@H](N)Cc1ccc(O)cc1)C(=O)NCC(=O)N[C@@H](Cc1ccccc1)C(=O)NNC(=O)[C@H](Cc1ccccc1)NC(=O)CNC(=O)[C@@H](C)NC(=O)[C@@H](N)Cc1ccc(O)cc1 [Biphalin]
% MPE, paw withdrawal test, Average (rats [1]; 2h, L): 100 % MPE | % MPE, paw withdrawal test, Average (rats [1]; 2h, R): 100 % MPE | % MPE, paw withdrawal test (rats [1]; 2h, left (L) hind paw, individual rats): 100 % MPE | % MPE, paw withdrawal test (rats [1]; 2h, right (R) hind paw, individual rats): 100 % MPE | % MPE, paw withdrawal test, Average (rats [1]; 4h, L): 100 % MPE | % MPE, paw withdrawal test (rats [1]; 4h, L, individual rats): 100 % MPE | % MPE, paw withdrawal test, Average (rats [1]; 4h, R): 100 % MPE | % MPE, paw withdrawal test (rats [1]; 4h, R, individual rats): 100 % MPE | % MPE, paw withdrawal test, Average (rats [1]; D1, L): 14.47 % MPE | % MPE, paw withdrawal test (rats [1]; D1, L, individual rats): 30.27 % MPE and 7.30 % MPE and −1.89 % MPE and 10.92 % MPE and 18.44 % MPE and 21.78 % MPE | % MPE, paw withdrawal test, Average (rats [1]; D1, R): 16.56 % MPE | % MPE, paw withdrawal test (rats [1]; D1, R, individual rats): 38.69 % MPE and 10.29 % MPE and −2.32 % MPE and 10.84 % MPE and 16.61 % MPE and 25.27 % MPE | % MPE, paw withdrawal test, Average (rats [1]; D2, L): 8.34 % MPE | % MPE, paw withdrawal test (rats [1]; D2, L, individual rats): 6.46 % MPE and 1.46 % MPE and −5.68 % MPE and 12.97 % MPE and 20.92 % MPE and 13.93 % MPE | % MPE, paw withdrawal test, Average (rats [1]; D2, R): 6.03 % MPE | % MPE, paw withdrawal test (rats [1]; D2, R, individual rats): 4.92 % MPE and 0.37 % MPE and −6.20 % MPE and 9.44 % MPE and 16.61 % MPE and 11.03 % MPE | % MPE, paw withdrawal test, Average (rats [1]; D3, L): 7.52 % MPE | % MPE, paw withdrawal test (rats [1]; D3, L, individual rats): −2.04 % MPE and 10.58 % MPE and 12.12 % MPE and 17.06 % MPE and 12.06 % MPE and −4.64 % MPE | % MPE, paw withdrawal test, Average (rats [1]; D3, R): 8.40 % MPE | % MPE, paw withdrawal test (rats [1]; D3, R, individual rats): 7.54 % MPE and 9.92 % MPE and 9.30 % MPE and 13.64 % MPE and 11.07 % MPE and −1.07 % MPE | % MPE, paw withdrawal test, Average (rats [1]; D4, L): 1.86 % MPE | % MPE, paw withdrawal test (rats [1]; D4, L, individual rats): 2.27 % MPE and 11.94 % MPE and 2.84 % MPE and 2.14 % MPE and 0.34 % MPE and −8.39 % MPE | % MPE, paw withdrawal test, Average (rats [1]; D4, R): 1.02 % MPE | % MPE, paw withdrawal test (rats [1]; D4, R, individual rats): −0.78 % MPE and 9.44 % MPE and 2.21 % MPE and −2.14 % MPE and 3.28 % MPE and −5.88 % MPE | % MPE, paw withdrawal test, Average (rats [1]; D5, L): 3.36 % MPE | % MPE, paw withdrawal test (rats [1]; D5, L, individual rats): 18.18 % MPE and 15.02 % MPE and 2.13 % MPE and −5 % MPE and 4.42 % MPE and −14.60 % MPE | % MPE, paw withdrawal test, Average (rats [1]; D5, R): 4.72 % MPE | % MPE, paw withdrawal test (rats [1]; D5, R, individual rats): 21.32 % MPE and 17.48 % MPE and 0.37 % MPE and −2.49 % MPE and 8.52 % MPE and −16.91 % MPE | % MPE, paw withdrawal test, Average (rats [1]; D6, L): 0.45 % MPE | % MPE, paw withdrawal test (rats [1]; D6, L, individual rats): 14.39 % MPE and 2.73 % MPE and −0.35 % MPE and −5.71 % MPE and −0.68 % MPE and −7.66 % MPE | % MPE, paw withdrawal test, Average (rats [1]; D6, R): 0.00 % MPE | % MPE, paw withdrawal test (rats [1]; D6, R, individual rats): 15.89 % MPE and 2.45 % MPE and −3.32 % MPE and −5.34 % MPE and 0.98 % MPE and −10.6 % MPE | Area under the curve (AUC), paw withdrawal test (left side) (rats [1]; [5]): 41.94 and 82.35 and 118.40 and 104.74 and 73.61 and 86.69 | Area under the curve (AUC), paw withdrawal test (right side) (rats [1]; [5]): 41.65 and 79.45 and 111.20 and 93.88 and 75.91 and 110.34 | Area under the curve (AUC), paw withdrawal test (left side), Mean (rats [1]; [6]): 84.62 * | Area under the curve (AUC), paw withdrawal test (right side), Mean (rats [1]; [6]): 85.40 * | duration of anesthesia/analgesia (rats [2]): about 3 days | % MPE, tail flick test, Average (rats [3]; 2h): 86.67 % MPE | % MPE, tail flick test (rats [3]; 2h after intrathecal implantation of PLGA rod, individual rats): 80 % MPE and 96.46 % MPE and 86.99 % MPE and 84.66 % MPE and 76.49 % MPE and 95.43 % MPE | % MPE, tail flick test, Average (rats [3]; 4h): 91.63 % MPE | % MPE, tail flick test (rats [3]; 4h, individual rats): 85.6 % MPE and 83.65 % MPE and 91.6 % MPE and 100 % MPE (2×) and 88.92 % MPE | Area under the curve (AUC), tail flick test (rats [3]; % MPE versus time in days, trapezoidal method, individual rats): 280.84 and 263.66 and 251.97 and 276.26 and 343.10 and 236.51 | Area under the curve (AUC), tail flick test, Mean (rats [3]; % MPE versus time in days, trapezoidal method, mean of 6 rats): 275.39 * | % MPE, tail flick test, Average (rats [3]; D1): 82.2 % MPE | % MPE, tail flick test (rats [3]; D1, individual rats): 84.8 % MPE and 71.9346 % MPE and 75.88 % MPE and 100 % MPE and 72.97 % MPE and 87.63 % MPE | % MPE, tail flick test, Average (rats [3]; D2): 73.13 % MPE | % MPE, tail flick test (rats [3]; D2, individual rats): 73.6 % MPE and 73.297 % MPE and 69.9187 % MPE and 90.48 % MPE and 55.14 % MPE and 76.34 % MPE | % MPE, tail flick test, Average (rats [3]; D3): 46.93 % MPE | % MPE, tail flick test (rats [3]; D3, individual rats): 32.53 % MPE and 35.15 % MPE and 36.59 % MPE and 73.54 % MPE and 50.27 % MPE and 53.49 % MPE | % MPE, tail flick test, Average (rats [3]; D4): 24 % MPE | % MPE, tail flick test (rats [3]; D4, individual rats): 22.67 % MPE and 20.16 % MPE and 31.17 % MPE and 33.33 % MPE and 21.08 % MPE and 15.5914 % MPE | % MPE, tail flick test, Average (rats [3]; D5): 9.086 % MPE | % MPE, tail flick test (rats [3]; D5, individual rats): 9.067 % MPE and 12.26 % MPE and 21.14 % MPE and 3.175 % MPE and 1.081 % MPE and 7.796 % MPE | % MPE, tail flick test, Average (rats [3]; D6): 2.009 % MPE | % MPE, tail flick test (rats [3]; D6, individual rats): 10.4 % MPE and 5.177 % MPE and 4.065 % MPE and 2.381 % MPE and −4.324 ^ % MPE and −5.645 ^ % MPE | release order [4]: two phases
